Measurements: patent US5364777A, “Method of improving lipase activity using noble gases” (American Air Liquide, priority 1992, dated 1994)

Assays:
[1] = tested on: triacylglycerol lipase EC 3.1.1.3; assay: Lipase L-1754 hydrolysis of p-nitrophenyl caprate, butyrate, caproate under gaseous atmospheres (400 nm); type: biochemical, Candida cylindracea; conditions: for Maximum enhancement of lipase activity, PNP-Caproate: substrate PNP-Caproate; for Maximum inhibition of lipase activity, PNP-Butyrate: substrate PNP-Butyrate, 10° C.
Description: FIGS. 4-6 show a typical and similar enzyme assay carried out on the same enzyme using PNP-butyrate showing inhibition of activity at 10° C. 25° C. and 35° C., respectively. Significant depression in rate is noted.
(§1) Lipase catalysis of lipid conversion was tested using triglycerides, paranitrophenyl (PNP) acetate, PNP-butyrate, PNP-caprate, PNP-caprylate, PNP-caproate, olive oil, standard lipids and triglycerides, and other lipids. […]
(§2) Testing Of An Adequate Procedure
(§3) To Follow Lipase L-1754/p-Nitrophenyl
caprate N-0252, p-Nitrophenyl butyrate N-9876, p-Nitrophenyl
caproate N-0502, p-Nitrophenyl caprylate N-0752
PURPOSE: Testing protocol to follow Lipase L-17,54 using p-
ENZYME: Lipase (Sigma No. L-1754)
Type VII from Candida cylindracea w/ 30% lactose
p-Nitrophenyl caprate (Sigma No. N-02521)
p-Nitrophenyl butyrate (Sigma No. N-9876)
p-Nitrophenyl caproate (Sigma No. N-0502)
Results: We will do gas runs using p-nitrophenyl caproate and
p-nitrophenyl caprate as substrates. These will be compared to
p-nitrophenyl caproate N-0502
p-nitrophenyl caprate N-0252

[2] = tested on: triacylglycerol lipase EC 3.1.1.3; assay: Lipase hydrolysis of p-nitrophenyl acetate under gaseous atmospheres (spectrophotometric, 400 nm); type: biochemical, Rhizonus arrhizus; conditions: substrate PNP-Acetate, +25° C.
Description: FIGS. 1-3 show a typical enzyme assay carried out at 10, 25 and 35 degrees °C. for triacylglycerol lipase catalysts of paranitrophenol acetate hydrolysis.
as §1, §2, §3
Effect of Air, Ne, Ar, Kr, Xe, N2 and O2 on
Lipase L-1754 using p-nitrophenyl acetate
ENZYME: Lipase (Sigma No. L-4384)
Type XI from Rhizonus arrhizus
p-Nitrophenyl acetate (Sigma No. N-8130)
8 DIFFERENT GASEOUS ATMOSPHERES:
3 DIFFERENT TEMPERATURES:
R = 2.0 ml Soln D + 0.5 ml Soln A
fill the cuvettes with 2.0 ml of (p-nitrophenyl
Fill 8 serum vials with 5.0 ml of (lipase
Bubble 10x10cc of the appropriate gas in T1G1 ... 5
Bubble 10xl0cc of the appropriate gas in G1 ... 5
Remove G1 ... 5 serum vials from fridge. Sample soln

Row | Maximum enhancement of lipase activity, PNP-Caprate ([1]; substrate PNP-Caprate, 35° C.) | Maximum enhancement of lipase activity, PNP-Caproate ([1]; 25° C.) | Maximum enhancement of lipase activity, PNP-Caproate ([1]; +35 degrees) | Compound | Maximum inhibition of lipase activity, PNP-Butyrate [1] | Maximum enhancement of lipase activity, PNP-Acetate [2]
1 | +14% | +37% |  | [Ar] [Ar, argon] |  | 
2 |  |  | +23% | [Xe] [Xe, xenon] | 26% | 
3 |  |  |  | [Kr] [Kr, krypton] | -25% | +11%
